Experimental data as given in patent publication US11723911B2, “Treatment of demyelinating diseases” (M ET P PHARMA AG, priority 2018, dated 2023).

Key:
[1] = tested on: primary mixed glial cells; test: Proliferation of Olig2+ cells (BrdU incorporation) in primary mixed glial cell cultures; assay type: cell-based, mouse; settings: for Olig2+ BrdU+ proliferating cells as percentage of total Olig2+ cells: SAG 1 μM or testosterone 1 μM from 5 to 12 DIV, BrdU 2 hours before end of culture
Experimental: Primary glial cell cultures were prepared from the dorsal telencephalon of newborn (P1) male mice as previously described in Feutz et al, J. Neurocytol, “Isolation and characterization of defective jimpy oligodendrocytes in culture”, 24:865-877 ([…]). Briefly, meninges are removed, and the dorsal telencephalons are microdissected and mechanically dissociated in DMEM supplemented with 10% calf serum, penicillin (50 U/ml), and streptomycin (50 μg/ml) (Thermo Fisher Scientific, France). The cell suspension is plated in a 24-well plates containing 0.5 ml of cultured medium coated with 30 μg/ml poly-1-lysine (Sigma-Aldrich). Cultures containing astrocytes, oligodendrocytes (OLs) and microglia cells are then incubated in 5% CO2 and 95% air in a humidified atmosphere (90%) at 37° C.
[…]. The supplemented culture medium was replaced every other day with a fresh solution. At 12 DIV, the cells were fixed for 20 minutes with 4% paraformaldehyde (PFA) in PBS, then permeabilized with 0.025% Triton X-100 for 10 minutes and blocked for 1 hour with Sea Block buffer (Thermo Fisher Scientific).
The cells were immunostained for BrdU and Olig2. For immunostaining, after overnight incubation with the primary antibodies at 4° C. followed by 3 washes in PBS, the cells were incubated with the appropriate secondary antibodies for 2 hours before washing with PBS and the addition of Fluoromount (Vector, clinisciences, France) as the mounting medium. Images were acquired with immunofluorescence microscopy as described above. (Data not shown).

[2] = tested on: primary mixed glial cells derived from Plp-EGP mice; test: Differentiation of PLP+ oligodendroglial cells co-expressing MBP in primary mixed glial cells from Plp-EGFP mice; assay type: cell-based, mouse; settings: for fold increase in the percentage of PLP+ cells co-expressing MBP compared to control / percentage of PLP+ cells co-expressing MBP: SANT 0.1 μM, testosterone 1 μM, alone or together; for percentage of PLP+ cells co-expressing MBP: 12 DIV
Experimental: Briefly, meninges are removed, and the dorsal telencephalons are microdissected and mechanically dissociated in DMEM supplemented with 10% calf serum, penicillin (50 U/ml), and streptomycin (50 μg/ml) (Thermo Fisher Scientific, France). The cell suspension is plated in a 24-well plates containing 0.5 ml of cultured medium coated with 30 μg/ml poly-1-lysine (Sigma-Aldrich).
The supplemented culture medium was replaced every other day with a fresh solution.
To analyse differentiation of myelin producing cells, the primary mixed glial cells were derived from Plp-EGP mice and cultured as described above. Detection of PLP+ cells co-expressing MBP was performed by using primary mixed glial cells derived from Plp-EGP mice and immunostaining for Mbp. Immunofluorescence images were acquired as described above and the number of PLP^+ cells co-expressing MBP were evaluated.

[3] = tested on: experimental autoimmune encephalomyelitis (EAE) in castrated male mice; test: Experimental autoimmune encephalomyelitis (EAE): clinical score, electron microscopy and immunostaining of lumbar spinal cord; assay type: in vivo, mouse; settings: for density of myelinated axons in spinal cord (electron microscopy) / g-ratio (axon diameter/total outer diameter of the myelinated fiber) / percentage of abnormal axons among total axons: 30 days post EAE induction; for g-ratio (axon diameter/total outer diameter of the myelinated fiber): small calibre axons (≤2.5 μm), n=3; for total density of activated Iba1+ microglia in the spinal cord: FIG. 5E; for EAE clinical score: between days 21 and 30, testosterone intranasal 0.2 mg/day, SAG oral gavage every other day; for area occupied by Arg1+ cells as percentage of the total area of the lesion: lumbar spinal cord, FIG. 5F; for percentage of abnormal axons among total axons / GFAP-positive area as percentage of the lesion area: spinal cord; for GFAP-positive area as percentage of the lesion area: FIG. 5G
Experimental: Electron microscopy. […] The g ratio (the ratio between the axon diameter and fiber diameter corresponding to myelin sheath+axon diameter) was estimated by measuring the minimum and maximum axon diameter and fiber diameter for each axon using ImageJ software. At least 300 randomly chosen myelinated axons were evaluated for each animal.
The pathology was induced according to the instructions from the provider (Hooke Laboratories, MA, USA). Briefly, mice were immunized by subcutaneous injection of an emulsion of MOG35-55 peptide (myelin oligodendrocyte glycoprotein[…] fragment 35-55) in complete Freund's adjuvant (at two sites using 0.1 ml of the pre-conditioned mixture for each site) followed on the same day (Day 0) by a first intraperitoneal injection of pertussis toxin in PBS and by a second one on Day 1 (250 ng/dose). The mice were scored blindly once a day starting at Day 7 post-immunization until Day 30 according to the following scale: 0.0=no obvious changes in motor function; 0.5=tip of tail is limp; 1.0=limp tail; 1.5=limp tail and hind leg inhibition; 2.0=limp tail and weakness of hind legs or signs of head tilting; 2.5=limp tail and dragging of hind legs or signs of head tilting; 3.0=limp tail and complete paralysis of hind legs or limb tail with paralysis of one front and one hind leg; 3.5=limp tail and complete paralysis of hind legs and animal unable to right itself when placed on its side; 4.0=limb tail, complete hind leg and partial front leg paralysis with minimal moving and feeding; 4.5=complete hind and partial front leg paralysis with no movement around the cage with the animal appearing no more alert; 5.0=extreme paralysis which requires euthanasia of the animal.
The active agents were administered at the onset of clinical symptoms until Day 30 after immunization. Testosterone was administered via the intranasal route (0.2 mg/day in a volume of 2.5 μl in each nostril) in an oleogel composition as described above. SAG was administered orally by gavage ([…] of mouse weight) every other day.
The animals were sacrificed by ketamine overdose. The spinal cord/vertebrae was removed and lumbar spinal cord/vertebrae samples were treated according to the requirements of the various histological procedures. For immunostaining, the spinal cord/vertebrae fragments were post-fixed in PFA 4% for 24 hrs. The spinal cords were removed from the vertebral column, processed in an ethanol/xylene bath and embedded in paraffin blocks. 7-μm sections were then obtained using a microtome (Leica) and allowed to dry on glass slides overnight at 37° C. For electron microscopy, the spinal cord/vertebrae fragments were post-fixed in a mixture of PFA 2% and glutaraldehyde 2% for 5 days. The spinal cords were removed from the vertebral column, post-fixed in cacodylate-buffered 1% osmium tetroxide for 1 hour at 4° C. and in 2% uranyl acetate for 1 hour at room temperature, and then dehydrated by serial dilutions of ethanol and embedded in epoxy resin. Ultrathin sections were contrasted with a saturated uranyl acetate solution.

[4] = tested on: LPC-induced demyelination in young male adult mice; test: LPC-induced demyelination of the corpus callosum with or without SAG (immunostaining at 2 and 10 dpl); assay type: in vivo, mouse
Experimental: Image Acquisition and Analysis. Images were taken using the microscope analyzing system Axiovision 4.2 (Carl Zeiss, Inc.), the confocal Zeiss LSM 510-Meta Confocor 2 and the scanner imager with the CaseViewer software. Analyses were performed with ImageJ software. At least 10 sections per mouse were analyzed and data are the mean of 3-5 mice. For the brains derived from the lysolecithin (LPC)-injected animals, immunofluorescent-positive cells or areas were determined in one every other 5 sections throughout the whole demyelinated lesion per mouse and averaged for each animal. The lesion surface was determined by measuring the area of the nuclear densification (correlated with myelin loss visualized by MBP or PLP staining) one every other 5 slices through the whole demyelinated lesion.
The effect of Smo activation by the Smo agonist SAG on demyelination was investigated as follows. LPC-induced demyelination was performed as previously described in Ferent et al., J. Neuroscience 33:1759-1772 (2013), in the absence or presence of SAG, in young male adult mice. Briefly, demyelinating lesions were induced unilaterally by stereotaxic injections of 2 μl of a solution containing LPC 1% (Sigma-Aldrich) along with SAG (0.2 μM) or the corresponding vehicle, into the right corpus callosum by using a Hamilton syringe specifically dedicated for neural surgery (NH BIO, France). The injection was performed at the following coordinates (to the bregma): anteroposterior (AP)+1 mm, lateral+1 mm, dorsoventral (DV) −2.2 mm. The brain was removed from deeply anesthetized mice and transcardially perfused with 4% PFA. The tissue was post-fixed for 4 hours in a fresh 4% PFA solution before being cryopreserved in 30% sucrose, frozen in liquid nitrogen and cryostat sectioned (14 μm). 4-5 mice were used per time point for each treatment condition. Mice were sacrificed at 2 and 10 days post-lesion (dpl), and prepared for immunostaining of PDGFRα, Olig2/APC, Ki67/PDGFRα, GFAP, and Iba1/Arg1. Images of immunostaining were acquired using immunofluorescence microscopy (data not shown), and the results were quantified by evaluating number of cells per surface unit for PDGFRα (FIG. 4A), Olig2/APC (FIG. 4B), Ki67/PDGFRα (FIG. 4C), GFAP (FIG. 4D), Iba1/Arg1 (FIG. 4E)

[5] = tested on: postnatal day 10 male pups; test: Developmental myelination in male pups treated subcutaneously from P3 to P10 (MBP/NF200 immunostaining); assay type: in vivo, mouse; settings: s.c. every other day from P3, SANT 20 μg/g, testosterone 20 μg
[6] = tested on: LPC-induced demyelination model, castrated male mice; test: Phosphorylated STAT3-expressing astrocytes in castrated male mice demyelinated by lysolecithin; assay type: in vivo, mouse
Excerpt: […]. The latter is important for both remyelination and astrocyte reactivity, which is similar to activated microglia involved in local inflammation. […].

Row | SMILES | Olig2+ BrdU+ proliferating cells as percentage of total Olig2+ cells [1] | density of myelinated axons in spinal cord (electron microscopy) [3] | g-ratio (axon diameter/total outer diameter of the myelinated fiber) [3] | total density of activated Iba1+ microglia in the spinal cord [3] | EAE clinical score [3] | area occupied by Arg1+ cells as percentage of the total area of the lesion [3] | percentage of abnormal axons among total axons [3] | GFAP-positive area as percentage of the lesion area [3] | fold increase in the percentage of PLP+ cells co-expressing MBP compared to control [2] | percentage of PLP+ cells co-expressing MBP [2] | myelinated area: area occupied by MBP as percentage of total area occupied by NF200 axons [5] | also measured
1 | CN[C@H]1CC[C@H](N(Cc2cccc(-c3ccncc3)c2)C(=O)c2sc3ccccc3c2Cl)CC1 [SAG, 3-Chloro-N-[trans-4-(methylamino)cyclohexyl]-N-[[3-(4-pyridinyl)phenyl]methyl]benzo[b]thiophene-2-carboxamide] | 8.4±0.5% | much higher density of myelinated axons | 0.737±0.005 | Neither testosterone nor SAG was found to significantly modify | ~1.0 | 10.9±1.7% | 14.0±1.7% | 25.1±2.2% |  |  |  | Effect on Mbp expression when used alone ([2]; SAG 0.1 μM or 1 μM alone): did not modify Mbp expression; Effect on testosterone-mediated OL differentiation ([2]; SAG 0.1 μM or 1 μM with testosterone 1 μM): slight but significant decrease; Claudin 5-positive area as percentage of the lesion area ([3]; blood brain barrier tight junction marker, FIG. 5H): 2.35±0.27%; Iba1+ microglia versus control ([4]; 2 dpl): unaffected; area occupied by GFAP+ astrocytes versus control ([4]; 2 dpl): tended to be decreased; density of Arg1+ pro-regenerative microglia ([4]; 2 dpl): 103±7 cells per surface unit; density of proliferating Ki67+ PDGFRα+ OPCs ([4]; 2 dpl): 39±2 cells per surface unit; fold enhancement of the density of Arg1+ microglia ([4]; 2 dpl): 2 fold; fold increase of the proportion of Iba1 microglia co-expressing Arg1 ([4]; 2 dpl): two-fold; proportion of Iba1 microglia co-expressing Arg1 ([4]; 2 dpl): 58±5%; total number of PDGFRα+ OPCs versus control ([4]; 2 dpl): remained unchanged; density of Olig2+ APC+ mature OLs ([4]; 10 dpl): 83±7 cells per surface unit; fold increase in PDGFRα+ cells compared to controls ([4]; 10 dpl): 2 fold; proportion of mature OLs versus control ([4]; 10 dpl): not significantly different; PDGFRα+ cells (OPCs) per unit surface ([4]; 10 dpl, SAG 0.2 μM injected with LPC): 121±11 cells per surface unit
2 | Cc1nn(-c2ccccc2)c(C)c1C=NN1CCN(Cc2ccccc2)CC1 [SANT-1, (4-Benzyl-piperazin-1-yl)-(3,5-dimethyl-1-phenyl-1H-pyrazol-4-ylmethylene)-amine] |  |  |  |  |  |  |  |  | 4 fold | 12.4±0.8% | 75.1±4.3% | Effect on testosterone-induced increase in Olig2+ BrdU+ cells ([1]; SANT-1 0.1 μM with testosterone 1 μM): blocks testosterone-induced increase
3 | N#Cc1ccc(C2CCCc3cncn32)cc1 (stereo not shown) [fadrozole] |  |  |  |  |  |  |  |  |  |  |  | effect on the testosterone-induced increase of phosphorylated STAT3-expressing astrocytes ([6]; fadrozole per oral route 260 μg/kg with intranasal testosterone, 7 days): inhibited
4 | C[C@]12CC[C@H]3[C@@H](CCC4=CC(=O)CC[C@@]43C)[C@@H]1CC[C@@H]2O [testosterone] | 3.8±0.6% | much higher density of myelinated axons | 0.773±0.003 | Neither testosterone nor SAG was found to significantly modify | ~2.0 | 6.8±1.4% | 15.8±1.4% | 38.8±1.8% | 4 fold | 11.7±1.5% | 78.0±4.1% | number of GFAP+ astrocytes expressing phosphorylated STAT3 ([6]; 7 days post-lesion, intranasal testosterone 0.2 mg/day or intranasal estradiol 0.05 mg/day): increased
